From BindingDB's records for patent US11958871 (Fraunhofer-Gesellschaft Zur Forderung Der Angewandten …, 2024)

Tests used:
[1] = target: T1, Peptidase M28 domain-containing protein (Prevotella nigrescens CC14M, UniProt V8CNC2)
T1 sequence (V8CNC2 whole entry): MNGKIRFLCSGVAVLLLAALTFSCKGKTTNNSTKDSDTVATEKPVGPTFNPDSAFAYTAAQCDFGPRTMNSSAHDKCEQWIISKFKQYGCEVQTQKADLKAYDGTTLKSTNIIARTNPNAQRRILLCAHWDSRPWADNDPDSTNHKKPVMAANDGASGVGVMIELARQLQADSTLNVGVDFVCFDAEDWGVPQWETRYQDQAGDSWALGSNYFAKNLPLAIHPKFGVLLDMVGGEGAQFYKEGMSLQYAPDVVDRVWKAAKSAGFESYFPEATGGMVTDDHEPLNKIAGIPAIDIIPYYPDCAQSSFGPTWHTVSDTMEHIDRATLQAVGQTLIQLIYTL

[2] = target: T2, Glutamine cyclotransferase-related protein (Porphyromonas gingivalis (strain ATCC BAA-308 / W83), UniProt Q7MT37); test: Inhibition of Glutaminyl Cyclases
T2 sequence (Q7MT37 whole entry): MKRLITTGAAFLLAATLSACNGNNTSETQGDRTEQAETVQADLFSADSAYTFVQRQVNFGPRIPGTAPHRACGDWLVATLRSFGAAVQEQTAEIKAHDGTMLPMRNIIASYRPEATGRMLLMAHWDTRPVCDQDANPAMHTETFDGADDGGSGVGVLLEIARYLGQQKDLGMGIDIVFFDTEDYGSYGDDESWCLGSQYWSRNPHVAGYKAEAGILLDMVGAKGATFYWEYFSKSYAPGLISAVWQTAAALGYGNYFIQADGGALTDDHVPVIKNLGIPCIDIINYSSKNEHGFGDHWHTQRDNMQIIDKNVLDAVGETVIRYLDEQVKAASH
Procedure: For inhibitor testing, the sample composition was the same as described above, except for the addition of the putative inhibitory compound. […] Inhibitory constants were determined using different concentration of H-Gln-AMC varying from Km-2 Km. Final concentration of bacterial QC was in a range between 25 nM-50 nM.

[3] = target: Glutaminyl-peptide cyclotransferase (Homo sapiens, UniProt Q16769)
Peptidase, M28 family = target: T3, Peptidase, M28 family (Tannerella forsythia (strain ATCC 43037 / JCM 10827 / CCUG 21028 A / KCTC 5666 / FDC 338), UniProt G8UMP8)
T3 sequence (G8UMP8 whole entry): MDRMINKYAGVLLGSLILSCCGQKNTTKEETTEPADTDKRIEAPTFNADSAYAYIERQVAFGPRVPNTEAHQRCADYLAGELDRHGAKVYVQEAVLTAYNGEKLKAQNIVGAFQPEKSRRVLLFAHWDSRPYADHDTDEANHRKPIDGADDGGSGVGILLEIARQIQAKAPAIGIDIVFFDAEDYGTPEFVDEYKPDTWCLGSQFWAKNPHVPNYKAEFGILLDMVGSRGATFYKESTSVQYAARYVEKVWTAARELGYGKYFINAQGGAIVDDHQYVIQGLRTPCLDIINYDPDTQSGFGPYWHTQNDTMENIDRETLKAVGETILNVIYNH

Sequence of Glutaminyl-peptide cyclotransferase (Q16769 whole entry): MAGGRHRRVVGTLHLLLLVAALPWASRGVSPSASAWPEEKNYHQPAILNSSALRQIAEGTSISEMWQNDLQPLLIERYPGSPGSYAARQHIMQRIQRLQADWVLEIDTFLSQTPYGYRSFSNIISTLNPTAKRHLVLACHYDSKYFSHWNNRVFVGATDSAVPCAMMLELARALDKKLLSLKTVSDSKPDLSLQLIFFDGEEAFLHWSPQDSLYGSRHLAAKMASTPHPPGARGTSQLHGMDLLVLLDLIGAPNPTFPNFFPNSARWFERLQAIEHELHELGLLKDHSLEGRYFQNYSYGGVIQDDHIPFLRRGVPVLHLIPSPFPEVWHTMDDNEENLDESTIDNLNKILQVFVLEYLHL

Structure (SMILES)	Ki [1] [nM]	Ki [2] [nM]	Ki [3] [nM]	Ki (Peptidase, M28 family) [nM]
c1ccc(CNc2ccc3nc[nH]c3n2)cc1 [US11958871, Example 1]	9400	–	–	–
c1ccc(CNc2cnc3[nH]cnc3c2)cc1 [US11958871, Example 2]	–	149	1280	1400
Fc1cc(CNc2cnc3[nH]cnc3c2)cc(F)c1F [US11958871, Example 3]	–	157	–	–
Clc1cccc(CNc2cnc3[nH]cnc3c2)c1 [US11958871, Example 5]	–	106	769	–
COc1cccc(CNc2cnc3[nH]cnc3c2)c1 [US11958871, Example 6]	–	77	599	–
COc1ccc(CNc2cnc3[nH]cnc3c2)cc1 [US11958871, Example 7]	–	83	–	–
c1nc2cc(NCc3ccsc3)cnc2[nH]1 [US11958871, Example 8]	–	185	1870	–
c1cc(CNc2cnc3[nH]cnc3c2)cc(N2CCCCC2)c1 [US11958871, Example 9]	–	442	–	–
c1ccc(CNc2cnc3[nH]cnc3c2)nc1 [US11958871, Example 10]	–	395	–	–
c1cncc(CNc2cnc3[nH]cnc3c2)c1 [US11958871, Example 11]	–	139	–	–
c1nc2cc(NCc3ccc4c(c3)OCCO4)cnc2[nH]1 [US11958871, Example 12]	728	44	543	680
COc1ccc(CNc2cnc3[nH]cnc3c2)cc1OC [US11958871, Example 13]	–	133	556	–
Clc1ccc(CNc2cnc3[nH]cnc3c2)cc1Cl [US11958871, Example 14]	–	53	431	358
CCCOc1ccc(CNc2cnc3[nH]cnc3c2)cc1 [US11958871, Example 15]	–	34	–	–
NCCOc1ccc(CNc2cnc3[nH]cnc3c2)cc1 [US11958871, Example 16]	–	30	1070	317
